# “Also recorded” adds a separate entry of the source.
# Key:
# [1] = test system: B16 Melanoma; assay: Antitumor activity in the B16 melanoma system (NCI screen); details: for % T/C (median lifetime) / cures (live animals day 60) / Survivors Day 4 / WT Diff, g (T - C): B16, Q01D × 09; for antitumor activity (in words): summary statements on in vivo screening, Table VI
# Description: Another approach to make basic derivatives is based on the concept of taking an existing hydrolysable derivative and further modifying it to form a derivative that allows for stepwise hydrolysis.
# Antitumor Activity in the B16 Melanoma System^a
# ^a Screening was carried out under the auspices of the National Cance
# Institute. For detailed explanations of procedures and data, see
# Instruction 14, Screening Data Summary Interpretation and Outline of
# Current Screen, Drug Evaluation Branch, Developmental Therapeutics
# Program, Division of Cancer Treatment, National Cancer Institute,
# Bethesda, Maryland 20892.
# ^b Q01D × 09. Single dose for 9 days; given in milligrams per
# kilogram body weight per injection.
# ^c Abbreviations: survivors day 4, live animals on the fourth day of
# testing/total animal; wt diff, g (T - C), the difference in body weight i
# grams between test and control animals; % T/C, the median lifetime of tes
# animals divided by the median lifetime of control animals, times 100; for
# the solid tumor system % T/C is 100 × (change in treated tumor wt 1
# day 11 - day 0)/change in control tumor wt.) if the tumor grows or 100
# × (change in treated tumor wt./initial treated tumor wt.) if the
# tumor regresses; cures, number of live animals on the last day of
# evaluation for the B16 melanoma system (day 60) or number of animals
# without measurable tumor on day 11 for the MX1 mammary tumor system.
# [2] = Aqueous solubility; details: water
compound,measurement,setting,value
"CC(=O)O[C@H]1C(=O)[C@@]2(C)[C@H]([C@H](OC(=O)c3ccccc3)[C@]3(O)C[C@H](OC(=O)[C@H](OC(=O)CCC(=O)O)[C@@H](NC(=O)c4ccccc4)c4ccccc4)C(C)=C1C3(C)C)[C@]1(OC(C)=O)CO[C@@H]1C[C@@H]2O [Example 1, 2' Succinyltaxol]",% T/C (median lifetime),[1]; 2.5 mg/kg per injection,119%
same,% T/C (median lifetime),[1]; 5 mg/kg per injection,154%
same,% T/C (median lifetime),[1]; 10 mg/kg per injection,159%
same,cures (live animals day 60),[1]; 10 mg/kg per injection,1
same,% T/C (median lifetime),[1]; 20 mg/kg per injection,154%
same,% T/C (median lifetime),[1]; 40 mg/kg per injection,185%
same,cures (live animals day 60),[1]; 40 mg/kg per injection,2
same,aqueous solubility (in words),[2],not water soluble
CC(=O)O[C@H]1C(=O)[C@@]2(C)[C@H]([C@H](OC(=O)c3ccccc3)[C@]3(O)C[C@H](OC(=O)[C@H](OC(=O)CCCC(=O)O)[C@@H](NC(=O)c4ccccc4)c4ccccc4)C(C)=C1C3(C)C)[C@]1(OC(C)=O)CO[C@@H]1C[C@@H]2O [Example 16],% T/C (median lifetime),[1]; 6.63 mg/kg per injection,207%
same,Survivors Day 4,[1]; 6.63 mg/kg per injection,8/8
same,"WT Diff, g (T - C)",[1]; 6.63 mg/kg per injection,0.4 g
same,% T/C (median lifetime),[1]; 13.25 mg/kg per injection,291%
same,Survivors Day 4,[1]; 13.25 mg/kg per injection,8/8
same,"WT Diff, g (T - C)",[1]; 13.25 mg/kg per injection,0.4 g
same,% T/C (median lifetime),[1]; 26.5 mg/kg per injection,239%
same,Survivors Day 4,[1]; 26.5 mg/kg per injection,8/8
same,"WT Diff, g (T - C)",[1]; 26.5 mg/kg per injection,0.4 g
same,cures (live animals day 60),[1]; 26.5 mg/kg per injection,2
same,% T/C (median lifetime),[1]; 53 mg/kg per injection,300%
same,Survivors Day 4,[1]; 53 mg/kg per injection,8/8
same,"WT Diff, g (T - C)",[1]; 53 mg/kg per injection,0.4 g
same,cures (live animals day 60),[1]; 53 mg/kg per injection,1
same,antitumor activity (in words),[1],very active and potent; also recorded: improved biological properties as compared to the corresponding succinates of Examples 12 and 8
CC(=O)O[C@H]1C(=O)[C@@]2(C)[C@H]([C@H](OC(=O)c3ccccc3)[C@]3(O)C[C@H](OC(=O)[C@H](OC(=O)CCCC(=O)O)[C@@H](NC(=O)c4ccccc4)c4ccccc4)C(C)=C1C3(C)C)[C@]1(OC(C)=O)CO[C@@H]1C[C@@H]2O [Example 17],% T/C (median lifetime),[1]; 6.13 mg/kg per injection,159%
same,Survivors Day 4,[1]; 6.13 mg/kg per injection,8/8
same,"WT Diff, g (T - C)",[1]; 6.13 mg/kg per injection,0.4 g
same,% T/C (median lifetime),[1]; 12.25 mg/kg per injection,192%
same,Survivors Day 4,[1]; 12.25 mg/kg per injection,8/8
same,"WT Diff, g (T - C)",[1]; 12.25 mg/kg per injection,0.6 g
same,% T/C (median lifetime),[1]; 24.5 mg/kg per injection,225%
same,Survivors Day 4,[1]; 24.5 mg/kg per injection,7/7
same,"WT Diff, g (T - C)",[1]; 24.5 mg/kg per injection,1.5 g
same,% T/C (median lifetime),[1]; 49 mg/kg per injection,339%
same,Survivors Day 4,[1]; 49 mg/kg per injection,7/7
same,"WT Diff, g (T - C)",[1]; 49 mg/kg per injection,0.4 g
same,antitumor activity (in words),[1],very active and potent; also recorded: improved biological properties as compared to the corresponding succinates of Examples 12 and 8
"CC(=O)O[C@H]1C(=O)[C@@]2(C)[C@H]([C@H](OC(=O)c3ccccc3)[C@]3(O)C[C@H](OC(=O)[C@H](OC(=O)CCCC(=O)NCCCN(C)C)[C@@H](NC(=O)c4ccccc4)c4ccccc4)C(C)=C1C3(C)C)[C@]1(OC(C)=O)CO[C@@H]1C[C@@H]2O [Example 25, Aminoamide Derivative of 2'-Glutaryltaxol]",antitumor activity (in words),[1],extremely potent and active
